Literature values as cited in patent publication USRE37771E1, “Purification of cinnamoyl-C-glycoside chromone” (Univera Pharmaceuticals, Inc., priority 1996, dated 2002).

What was measured:
[1] = in vivo assays; details in related U.S. application Ser. No. 08/391,139
epithelial cell lines = conditions: in vitro, details in related U.S. application Ser. No. 08/391,139

COc1cc(C)c2c(=O)cc(CC(C)O)oc2c1C1OC(CO)C(O)C(O)C1OC(=O)/C=C/c1ccccc1 [540 compound, 8-C-β-D-[2′-O-(E)-cinnamoyl]glycopyranosyl-2-[(S)-2-hydroxy]propyl-7-methoxy-5-methylchromone]
anti-inflammatory activity [1]: potent anti-inflammatory activity
inhibition of EGF-induced DNA synthesis (epithelial cell lines): inhibit EGF-induced DNA synthesis
